Results reported in patent US11793849B2, “Method of Chinese herbal medicine extract used for treating multiple diseases caused by drug resistant bacteria infection” (priority 2016, dated 2023).
In brackets after ≈: the same amount, converted by molar mass. Where two headings read alike, the source gives them in different places.

Assays:
MDRPA = assay: Checkerboard assay (combined-use MIC, FIC); assay type: cell-based, Pseudomonas aeruginosa
Protocol: Test methods of the sensibilization effects of the test product to similar antibiotics: it is operated by referring to a checkerboard assay recommended by NCCLS.
The checkerboard assay is performed in a 96-pore sterile culture plate.
Calculation of a Fractional Inhibitory Concentration (FIC): FIC=S20b combined-use MIC/S20b single-use MIC+antibiotic combined-use MIC/antibiotic single-use MIC. By calculating the FIC, the combined antibacterial interaction between the EA and the antibiotic is evaluated, with synergistic effect for FIC≤0.5, additive effect for 0.5<FIC≤1, indifferent effect for 1<FIC≤2 and antagonistic effect for FIC>2. According to a sterile growth pore, the optimum concentration ratio between the EA and the antibiotic is founded out. At last, the effect of the EA to strengthen the efficacy of the antibiotic is evaluated.

MDRAB = assay: MIC determination, microdilution broth method; assay type: cell-based, Acinetobacter baumannii
Protocol: Determination methods of a Minimal Inhibitory Concentration (MIC) and a Minimum Bactericidal Concentration (MBC) of a test product: the MIC and the MBC of the Pithecellobium clypearia Benth water or ethanol extract to the MDRAB are determined by a microdilution broth method. And it is operated by referring to the microdilution broth method recommended by National Committee for Clinical Laboratory Standards (NCCLS).

[1] = single use, 20 MDRABs, EA=10% ethanol extract
[2] = single use, 20 MDRABs, EA=water extract
[3] = single use, 20 MDRABs, section of the 95% ethanol extract

CC(C)(O/N=C(\C(=O)N[C@@H]1C(=O)N2C(C(=O)[O-])=C(C[n+]3ccccc3)CS[C@H]12)c1csc(N)n1)C(=O)O [CAZ, Ceftazidime]
combined-use MIC (MDRPA; strain P18, EA (P. clypearia 10% ethanol extract) combined with CAZ): 32 µg/mL
combined-use MIC (MDRPA; strain P18, EA (P. clypearia water extract) combined with CAZ): 16 µg/mL
combined-use MIC (MDRPA; strain P19, EA (P. clypearia 10% ethanol extract) combined with CAZ): 2 µg/mL
combined-use MIC (MDRPA; strain P19, EA (P. clypearia water extract) combined with CAZ): 2 µg/mL
combined-use MIC (MDRPA; strain P20, EA (P. clypearia 10% ethanol extract) combined with CAZ): 64 µg/mL
combined-use MIC (MDRPA; strain P20, EA (P. clypearia water extract) combined with CAZ): 64 µg/mL
MIC (MDRAB; Acinetobacter baumannii, strain A1, EA=P. clypearia 95% ethanol extract, read-out: single-use MIC): 128 µg/mL (≈ 234 µM)
MIC (MDRAB; Acinetobacter baumannii, strain A2, EA=P. clypearia 95% ethanol extract, read-out: single-use MIC): 512 µg/mL (≈ 937 µM)
MIC (MDRAB; Acinetobacter baumannii, strain A3, EA=P. clypearia 95% ethanol extract, read-out: single-use MIC): 512 µg/mL (≈ 937 µM)
MIC (MDRAB; Acinetobacter baumannii, strain A4, EA=P. clypearia 95% ethanol extract, read-out: single-use MIC): 256 µg/mL (≈ 468 µM)
MIC (MDRAB; Acinetobacter baumannii, strain A5, EA=60% ethanol extract, read-out: MIC): 64 µg/mL (≈ 117 µM)
MIC (MDRAB; Acinetobacter baumannii, strain A5, EA=95% ethanol extract, read-out: MIC): 64 µg/mL (≈ 117 µM)
MIC (MDRAB; Acinetobacter baumannii, strain A5, EA=P. clypearia 95% ethanol extract, read-out: single-use MIC): 64 µg/mL (≈ 117 µM)
MIC (MDRAB; Acinetobacter baumannii, strain A5, single use, EA=10% ethanol extract, read-out: MIC): 64 µg/mL (≈ 117 µM)
MIC (MDRAB; Acinetobacter baumannii, strain A5, single use, EA=water extract, read-out: MIC): 64 µg/mL (≈ 117 µM)
MIC (MDRAB; Acinetobacter baumannii, strain A6, EA=60% ethanol extract, read-out: MIC): > 512 µg/mL
MIC (MDRAB; Acinetobacter baumannii, strain A6, EA=95% ethanol extract, read-out: MIC): > 512 µg/mL
MIC (MDRAB; Acinetobacter baumannii, strain A6, EA=P. clypearia 95% ethanol extract, read-out: single-use MIC): 1020 µg/mL (≈ 1870 µM)
MIC (MDRAB; Acinetobacter baumannii, strain A6, single use, EA=10% ethanol extract, read-out: MIC): > 512 µg/mL
MIC (MDRAB; Acinetobacter baumannii, strain A6, single use, EA=water extract, read-out: MIC): > 512 µg/mL
MIC (MDRAB; Acinetobacter baumannii, strain A7, EA=60% ethanol extract, read-out: MIC): > 512 µg/mL
MIC (MDRAB; Acinetobacter baumannii, strain A7, EA=95% ethanol extract, read-out: MIC): > 512 µg/mL
MIC (MDRAB; Acinetobacter baumannii, strain A7, EA=P. clypearia 95% ethanol extract, read-out: single-use MIC): 1020 µg/mL (≈ 1870 µM)
MIC (MDRAB; Acinetobacter baumannii, strain A7, single use, EA=10% ethanol extract, read-out: MIC): > 512 µg/mL
MIC (MDRAB; Acinetobacter baumannii, strain A7, single use, EA=water extract, read-out: MIC): > 512 µg/mL
MIC (MDRAB; Acinetobacter baumannii, strain A8, EA=P. clypearia 95% ethanol extract, read-out: single-use MIC): 512 µg/mL (≈ 937 µM)
MIC (MDRAB; Acinetobacter baumannii, strain A9, EA=P. clypearia 95% ethanol extract, read-out: single-use MIC): 512 µg/mL (≈ 937 µM)
MIC (MDRAB; Acinetobacter baumannii, strain A10, EA=P. clypearia 95% ethanol extract, read-out: single-use MIC): 512 µg/mL (≈ 937 µM)
MIC (MDRAB; Acinetobacter baumannii, strain A11, EA=P. clypearia 95% ethanol extract, read-out: single-use MIC): 512 µg/mL (≈ 937 µM)
MIC (MDRAB; Acinetobacter baumannii, strain A12, EA=P. clypearia 95% ethanol extract, read-out: single-use MIC): 512 µg/mL (≈ 937 µM)
MIC (MDRAB; Acinetobacter baumannii, strain A13, EA=P. clypearia 95% ethanol extract, read-out: single-use MIC): 256 µg/mL (≈ 468 µM)
MIC (MDRAB; Acinetobacter baumannii, strain A14, EA=P. clypearia 95% ethanol extract, read-out: single-use MIC): 512 µg/mL (≈ 937 µM)
MIC (MDRAB; Acinetobacter baumannii, strain A15, EA=P. clypearia 95% ethanol extract, read-out: single-use MIC): 256 µg/mL (≈ 468 µM)
MIC (MDRAB; Acinetobacter baumannii, strain A16, EA=P. clypearia 95% ethanol extract, read-out: single-use MIC): 512 µg/mL (≈ 937 µM)
MIC (MDRAB; Acinetobacter baumannii, strain A17, EA=P. clypearia 95% ethanol extract, read-out: single-use MIC): 256 µg/mL (≈ 468 µM)
MIC (MDRAB; Acinetobacter baumannii, strain A18, EA=P. clypearia 95% ethanol extract, read-out: single-use MIC): 512 µg/mL (≈ 937 µM)
MIC (MDRAB; Acinetobacter baumannii, strain A19, EA=P. clypearia 95% ethanol extract, read-out: single-use MIC): 256 µg/mL (≈ 468 µM)
MIC (MDRAB; Acinetobacter baumannii, strain A20, EA=P. clypearia 95% ethanol extract, read-out: single-use MIC): 512 µg/mL (≈ 937 µM)
MIC50 (MDRAB; Acinetobacter baumannii, single use, 20 MDRABs, section of the 60% ethanol extract, read-out: MIC50): 512 µg/mL (≈ 937 µM)
MIC90 (MDRAB; Acinetobacter baumannii, single use, 20 MDRABs, section of the 60% ethanol extract, read-out: MIC90): 512 µg/mL (≈ 937 µM)
MIC50 (MDRAB; MDRABs, EA=60% ethanol extract): 512 µg/mL (≈ 937 µM)
MIC90 (MDRAB; MDRABs, EA=60% ethanol extract): 512 µg/mL (≈ 937 µM)
MIC Range (MDRAB; MDRABs, EA=60% ethanol extract): 64 to 512 µg/mL
MIC50 (MDRAB; MDRABs, EA=95% ethanol extract): 512 µg/mL (≈ 937 µM)
MIC90 (MDRAB; MDRABs, EA=95% ethanol extract): 512 µg/mL (≈ 937 µM)
MIC Range (MDRAB; MDRABs, EA=95% ethanol extract): 64 to 512 µg/mL
MIC50 (MDRAB; [1]): 512 µg/mL (≈ 937 µM)
MIC90 (MDRAB; [1]): 512 µg/mL (≈ 937 µM)
MIC Range (MDRAB; [1]): 64 to 512 µg/mL
MIC50 (MDRAB; [2]): 512 µg/mL (≈ 937 µM)
MIC90 (MDRAB; [2]): 512 µg/mL (≈ 937 µM)
MIC Range (MDRAB; [2]): 64 to 512 µg/mL
MIC50 (MDRAB; [3]): 512 µg/mL (≈ 937 µM)
MIC90 (MDRAB; [3]): 512 µg/mL (≈ 937 µM)
MIC (MDRAB; strain A6, single use, EA=10% ethanol extract): 1024 µg/mL (≈ 1870 µM)
MIC (MDRAB; strain A6, single use, EA=water extract): 1024 µg/mL (≈ 1870 µM)
MIC (MDRAB; strain A7, single use, EA=10% ethanol extract): 1024 µg/mL (≈ 1870 µM)
MIC (MDRAB; strain A7, single use, EA=water extract): 1024 µg/mL (≈ 1870 µM)
